For one test, the target named is Bcl-xL/Bim (Homo sapiens, UniProt Q07817). Nature of the test: ELISA, disruption of Bcl-xL/Bim binding. To be noted: for selectivity for Bcl-xL over Mcl-1: ratio of ELISA IC50 values; for IC50: read-out: Bcl-xL/Bim IC50, ELISA, average ± SEM, n ≥ 3; for fold more potent than 1 against Bcl-xL/Bim: ELISA IC50 relative to (±)-marinopyrrole A (1).
For test [1], the system named is MDA-MB-468 breast cancer cells. The format is cell-based, human. To be noted: MDA-MB-468 cells; for decrease of Mcl-1 levels and induction of apoptosis (caspase 3 activation): 3 μM, western blot; for decrease of Mcl-1 levels and caspase 3 cleavage: concentrations as high as 10 μM (data not shown). Background: A western blot detects proteins with antibodies after separation by electrophoresis.

Another test has as its target Mcl-1/Bim (Homo sapiens, UniProt Q07820). Kind of test: ELISA, disruption of Mcl-1/Bim binding. Particulars: for IC50: read-out: Mcl-1/Bim IC50, ELISA, average ± SEM, n ≥ 3; for fold more potent than 1 against Mcl-1/Bim: ELISA IC50 relative to (±)-marinopyrrole A (1).

Data on 19 compounds can be found in PMC4445146 (European journal of medicinal chemistry, 2014).

Chain of Bcl-xL/Bim (Q07817 whole entry): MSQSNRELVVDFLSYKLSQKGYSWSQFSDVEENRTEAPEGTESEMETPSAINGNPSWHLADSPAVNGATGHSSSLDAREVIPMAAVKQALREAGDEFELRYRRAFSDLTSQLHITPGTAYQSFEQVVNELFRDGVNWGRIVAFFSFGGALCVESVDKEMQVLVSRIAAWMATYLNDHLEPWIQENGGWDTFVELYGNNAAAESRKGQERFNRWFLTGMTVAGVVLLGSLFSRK
Chain of Mcl-1/Bim (Q07820 whole entry): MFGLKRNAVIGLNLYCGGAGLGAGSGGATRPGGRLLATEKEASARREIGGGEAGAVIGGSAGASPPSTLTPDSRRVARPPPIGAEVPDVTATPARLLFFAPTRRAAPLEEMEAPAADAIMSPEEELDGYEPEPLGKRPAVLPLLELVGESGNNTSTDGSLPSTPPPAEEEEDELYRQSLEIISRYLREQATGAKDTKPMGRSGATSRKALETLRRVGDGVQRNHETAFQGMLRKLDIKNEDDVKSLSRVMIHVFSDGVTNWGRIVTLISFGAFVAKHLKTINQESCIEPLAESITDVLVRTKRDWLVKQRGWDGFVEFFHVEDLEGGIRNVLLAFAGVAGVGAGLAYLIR

For `O=C(c1ccc(-c2cn(-c3ccccc3)nn2)cc1O)c1[nH]c(Cl)c(Cl)c1-n1c(C(=O)c2ccc(-c3cn(-c4ccccc4)nn3)cc2O)cc(Cl)c1Cl` [compound 40], at Bcl-xL/Bim, the “selectivity for Bcl-xL over Mcl-1” value is on record as 2 fold. In addition, the “decrease of Mcl-1 levels and induction of apoptosis (caspase 3 activation)” value (“decrease … (caspase 3 activation)” for short) in test [1] was “little activity in intact cells”.

With `CCc1ccc(C(=O)c2[nH]c(Cl)c(Cl)c2-n2c(C(=O)c3ccc(CC)cc3O)cc(Cl)c2Cl)c(O)c1` [compound 27, (4,4′,5,5′-Tetrachloro-1′H-1,3′-bipyrrole-2,2′-diyl)bis((4-ethyl-2-hydroxyphenyl)methanone)], the IC50 at Mcl-1/Bim was 2.1 ± 0.5 µM; on Bcl-xL/Bim, 3.9 ± 1.3 µM.

In the case of `O=C(O)Cn1cc(-c2ccc(C(=O)c3[nH]c(Cl)c(Cl)c3-n3c(C(=O)c4ccc(-c5cn(CC(=O)O)nn5)cc4O)cc(Cl)c3Cl)c(O)c2)nn1` [compound 45, 2,2′-(4,4′-((4,4′,5,5′-Tetrachloro-1′H-1,3′-bipyrrole-2,2′-dicarbonyl)bis(3-hydroxy-4,1-phenylene))bis(1H-1,2,3-triazole-4,1-diyl))diacetic acid], at Mcl-1/Bim, the IC50 came out at 16.5 ± 1.9 µM. With `O=C(c1cc(Cl)c(O)cc1O)c1[nH]c(Cl)c(Cl)c1-n1c(C(=O)c2cc(Cl)c(O)cc2O)cc(Cl)c1Cl` [compound 30], the “decrease of Mcl-1 levels and caspase 3 cleavage” value in test [1] is “inactive at decreasing Mcl-1 levels and at inducing caspase 3 cleavage”. Take `Cn1c(Cl)c(Cl)c(-n2c(C(=O)c3ccccc3O)cc(Cl)c2Cl)c1C(=O)c1ccccc1O` [compound 54, (4,4′,5,5′-tetrachloro-1′-methyl-1′H-[1,3′-bipyrrole]-2,2′-diyl)bis((2-hydroxyphenyl)methanone)]: at Bcl-xL/Bim, the “selectivity for Bcl-xL over Mcl-1” value is recorded as “selectivity for Bcl-xL/Bim over Mcl-/Bim”.

For `CC(C)(C)OC(=O)Cn1cc(-c2cc(O)c(C(=O)c3[nH]c(Cl)c(Cl)c3-n3c(C(=O)c4cc(Cl)c(-c5cn(CC(=O)OC(C)(C)C)nn5)cc4O)cc(Cl)c3Cl)cc2Cl)nn1` [compound 37, Di-tert-butyl 2,2′-(4,4′-((4,4′,5,5′-tetrachloro-1′H-1,3′-bipyrrole-2,2′-dicarbonyl)bis(2-chloro-5-hydroxy-4,1-phenylene))bis(1H-1,2,3-triazole-4,1-diyl))diacetate], in test [1], the “decrease … (caspase 3 activation)” value is listed as “little activity in intact cells”.

In the case of `CCOC(=O)CSc1ccc(C(=O)c2[nH]c(Cl)c(Cl)c2-n2c(C(=O)c3ccc(SCC(=O)OCC)cc3O)cc(Cl)c2Cl)c(O)c1` [compound 31], the “decrease … (caspase 3 activation)” value in test [1] is listed as “little activity in intact cells”. On to “(4,4′,5,5′-Tetrachloro-1′H-1,3′-bipyrrole-2,2′-diyl)bis((2-hydroxy-4-(1-octyl-1H-1,2,3-triazol-5-yl)phenyl)methanone) [compound 42]”, for which, at Mcl-1/Bim, the “fold more potent than 1 against Mcl-1/Bim” value stood at 15 fold and the IC50 was 0.6 ± 0.3 µM. For the same compound, at Bcl-xL/Bim, the “fold more potent than 1 against Bcl-xL/Bim” value was 33 fold and the IC50 was found to be 0.5 ± 0.1 µM. The “decrease … (caspase 3 activation)” value in test [1] was “little activity in intact cells”. Take `O=C(c1ccccc1O)c1[nH]c(Cl)c(Cl)c1-n1c(C(=O)c2cc(Cl)ccc2O)cc(Cl)c1Cl` [compound 48]: the “decrease … (caspase 3 activation)” value in test [1] is reported as “not active in intact cells”.

`O=C(c1ccc(SCc2ccccc2)cc1O)c1[nH]c(Cl)c(Cl)c1-n1c(C(=O)c2ccc(SCc3ccccc3)cc2O)cc(Cl)c1Cl` [compound 32]: in test [1], the “decrease … (caspase 3 activation)” value is on record as “little activity in intact cells”. With `C#Cc1ccc(C(=O)c2[nH]c(Cl)c(Cl)c2-n2c(C(=O)c3ccc(C#C)cc3O)cc(Cl)c2Cl)c(O)c1` [compound 25, (4,4′,5,5′-Tetrachloro-1′H-1,3′-bipyrrole-2,2′-diyl)bis((4-ethynyl-2-hydroxyphenyl)methanone)], the IC50 at Mcl-1/Bim turned out to be 3.9 ± 0.2 µM; at Bcl-xL/Bim, 5.6 ± 0.5 µM.

In the case of `Cc1cc(O)c(C(=O)c2[nH]c(Cl)c(Cl)c2-n2c(C(=O)c3cc(Cl)c(C)cc3O)cc(Cl)c2Cl)cc1Cl` [compound 24, (4,4′,5,5′-Tetrachloro-1′H-1,3′-bipyrrole-2,2′-diyl)bis((5-chloro-2-hydroxy-4-methylphenyl)methanone)], the figures for the IC50 on Mcl-1/Bim and at Bcl-xL/Bim were 2.6 ± 0.6 µM and 2.5 ± 0.4 µM, respectively. Take `O=C(c1ccc(O)cc1O)c1[nH]c(Cl)c(Cl)c1-n1c(C(=O)c2ccc(O)cc2O)cc(Cl)c1Cl` [compound 29]: the “decrease of Mcl-1 levels and caspase 3 cleavage” value in test [1] was “inactive at decreasing Mcl-1 levels and at inducing caspase 3 cleavage”.

Turning to `O=C(c1ccc(OS(=O)(=O)C(F)(F)F)cc1O)c1[nH]c(Cl)c(Cl)c1-n1c(C(=O)c2ccccc2O)cc(Cl)c1Cl` [compound 28], the “fold more potent than 1 against Mcl-1/Bim” value on Mcl-1/Bim was “nine”. The “fold more potent than 1 against Bcl-xL/Bim” value at Bcl-xL/Bim is on record as “eight”. `CCOC(=O)Cn1cc(-c2cc(O)c(C(=O)c3[nH]c(Cl)c(Cl)c3-n3c(C(=O)c4cc(Cl)c(-c5cn(CC(=O)OCC)nn5)cc4O)cc(Cl)c3Cl)cc2Cl)nn1` [compound 36, Diethyl 2,2′-(4,4′-((4,4′,5,5′-tetrachloro-1′H-1,3′-bipyrrole-2,2′-dicarbonyl)bis(2-chloro-5-hydroxy-4,1-phenylene))bis(1H-1,2,3-triazole-4,1-diyl))diacetate]: the IC50 on Mcl-1/Bim was 7.8 ± 1.5 µM. For the compound `O=C(O)Cn1cc(-c2cc(O)c(C(=O)c3[nH]c(Cl)c(Cl)c3-n3c(C(=O)c4cc(Cl)c(-c5cn(CC(=O)O)nn5)cc4O)cc(Cl)c3Cl)cc2Cl)nn1` [compound 38, 2,2′-(4,4′-((4,4′,5,5′-Tetrachloro-1′H-1,3′-bipyrrole-2,2′-dicarbonyl)bis(2-chloro-5-hydroxy-4,1-phenylene))bis(1H-1,2,3-triazole-4,1-diyl))diacetic acid], the IC50 on Mcl-1/Bim came out at 5.2 ± 0.8 µM. The “decrease of Mcl-1 levels and caspase 3 cleavage” value in test [1] was “inactive at decreasing Mcl-1 levels and at inducing caspase 3 cleavage”. Regarding `COc1ccc(CSc2ccc(C(=O)c3[nH]c(Cl)c(Cl)c3-n3c(C(=O)c4ccc(SCc5ccc(OC)cc5)cc4O)cc(Cl)c3Cl)c(O)c2)cc1` [compound 33], the “decrease … (caspase 3 activation)” value in test [1] was “little activity in intact cells”. Take `CCOC(=O)Cn1cc(-c2ccc(C(=O)c3[nH]c(Cl)c(Cl)c3-n3c(C(=O)c4ccc(-c5cn(CC(=O)OCC)nn5)cc4O)cc(Cl)c3Cl)c(O)c2)nn1` [compound 43, Diethyl 2,2′-(4,4′-((4,4′,5,5′-tetrachloro-1′H-1,3′-bipyrrole-2,2′-dicarbonyl)bis(3-hydroxy-4,1-phenylene))bis(1H-1,2,3-triazole-4,1-diyl))diacetate]: the IC50 at Mcl-1/Bim came out at 18.4 ± 0.3 µM.

`O=C(c1ccccc1O)c1[nH]c(Cl)c(Cl)c1-n1c(C(=O)c2c(O)cccc2F)cc(Cl)c1Cl` [compound 52]: the “decrease … (caspase 3 activation)” value in test [1] is listed as “not active in intact cells”.
